The values below come from patent publication US8329904B2, “Azacyclic derivatives” (Hoffmann-La Roche Inc., priority 2009, dated 2012).

The structures appear in SMILES notation. pIC50: −log10 of the molar value.

The pIC50 is the negative decadic logarithm of the IC50, by convention in mol/L.

In the test the target is T1, human HSL (Homo sapiens, UniProt Q05469).
T1 construct: overlapping PCR to generate a full length human HSL ORF with a 3′-His6 tag; His6 (C); made in house; host or cells: High 5 insect cells (baculovirus, pFast-BAC)
T1 sequence (Q05469 1-1076): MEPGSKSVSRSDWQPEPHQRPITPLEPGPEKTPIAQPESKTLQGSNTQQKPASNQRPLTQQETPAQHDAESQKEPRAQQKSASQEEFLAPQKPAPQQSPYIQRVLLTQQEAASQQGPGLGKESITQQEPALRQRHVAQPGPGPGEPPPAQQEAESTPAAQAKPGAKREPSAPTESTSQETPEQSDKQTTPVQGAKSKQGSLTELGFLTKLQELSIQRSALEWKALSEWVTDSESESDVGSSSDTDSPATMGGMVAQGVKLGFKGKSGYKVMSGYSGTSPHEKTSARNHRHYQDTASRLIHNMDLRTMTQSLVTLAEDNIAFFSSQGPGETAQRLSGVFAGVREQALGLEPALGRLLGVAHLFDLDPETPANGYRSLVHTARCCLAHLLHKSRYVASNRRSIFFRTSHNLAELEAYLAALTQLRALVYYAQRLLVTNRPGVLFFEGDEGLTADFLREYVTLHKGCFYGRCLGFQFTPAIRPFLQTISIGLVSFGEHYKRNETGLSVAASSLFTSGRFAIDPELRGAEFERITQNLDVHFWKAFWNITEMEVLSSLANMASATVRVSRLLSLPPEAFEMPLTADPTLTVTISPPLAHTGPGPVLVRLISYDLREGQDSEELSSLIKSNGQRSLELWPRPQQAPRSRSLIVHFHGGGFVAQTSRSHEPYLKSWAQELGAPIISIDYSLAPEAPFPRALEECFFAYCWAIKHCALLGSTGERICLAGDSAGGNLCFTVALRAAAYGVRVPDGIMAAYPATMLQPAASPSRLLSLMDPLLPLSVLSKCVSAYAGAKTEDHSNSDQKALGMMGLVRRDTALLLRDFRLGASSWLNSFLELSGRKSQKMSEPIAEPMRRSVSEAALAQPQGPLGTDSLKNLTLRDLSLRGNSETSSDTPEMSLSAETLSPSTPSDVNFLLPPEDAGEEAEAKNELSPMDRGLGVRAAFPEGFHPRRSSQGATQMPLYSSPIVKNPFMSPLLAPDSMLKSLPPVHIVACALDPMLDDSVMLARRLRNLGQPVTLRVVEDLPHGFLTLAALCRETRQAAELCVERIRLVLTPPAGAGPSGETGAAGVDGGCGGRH
As to the kind of experiment: Human Hormone-Sensitive Lipase (HSL) Enzyme Inhibition Assay. Particulars: colorimetric assay, 2,3-dimercapto-1-propanol tributyrate (DMPT) substrate, 37° C. for 20 minutes, absorbance at 405 nm; read-out: HSL hum IC50. In kind it is biochemical. The method in brief: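 Colorimetric thioester hydrolysis: compounds in DMSO series mixed with DMPT (1.5 mM) in MOPS pH 7.2 with BSA, then baculovirus-expressed His6-tagged full-length human HSL added, 37° C, 20 min. DTNB plus detergents added, 15 min room temperature, absorbance at 405 nm.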

Turning to `CN(CCc1ccccn1)C(=O)N1CCC2(CC1)CCN(c1ccc(OC(F)(F)F)cc1)C2=O` [Example 283, 1-Oxo-2-(4-trifluoromethoxy-phenyl)-2,8-diaza-spiro[4.5]decane-8-carboxylic acid methyl-(2-pyridin-2-yl-ethyl)-amide], the pIC50 was 6.85.
Then `CCN(CCc1ccccn1)C(=O)N1CCC2(CC1)CCN(c1ccc(OC(F)(F)F)cc1)C2=O` [Example 284, 1-Oxo-2-(4-trifluoromethoxy-phenyl)-2,8-diaza-spiro[4.5]decane-8-carboxylic acid ethyl-(2-pyridin-2-yl-ethyl)-amide], with 6.82; and `CC(C)NS(=O)(=O)N1CCC2(CCN(c3ccc(OC(F)(F)F)cc3)C2=O)CC1` [Example 285, 1-Oxo-2-(4-trifluoromethoxy-phenyl)-2,8-diaza-spiro[4.5]decane-8-sulfonic acid isopropylamide], with 7.15.
Then `O=C1N(c2ccc(OC(F)(F)F)cc2)CCC12CCN(S(=O)(=O)Nc1ccccc1)CC2` [Example 286, 1-Oxo-2-(4-trifluoromethoxy-phenyl)-2,8-diaza-spiro[4.5]decane-8-sulfonic acid phenylamide], with 7.22; and `O=C1N(c2ccc(OC(F)(F)F)cc2)CCC12CCN(S(=O)(=O)NCc1ccccc1)CC2` [Example 287, 1-Oxo-2-(4-trifluoromethoxy-phenyl)-2,8-diaza-spiro[4.5]decane-8-sulfonic acid benzylamide], with 7.30.
Regarding `CC(CNS(=O)(=O)N1CCC2(CCN(c3ccc(OC(F)(F)F)cc3)C2=O)CC1)c1ccccc1` (stereo not drawn) [Example 288, 1-Oxo-2-(4-trifluoromethoxy-phenyl)-2,8-diaza-spiro[4.5]decane-8-sulfonic acid (2-phenyl-propyl)-amide], the pIC50 was 6.82.
Then `COCCNS(=O)(=O)N1CCC2(CCN(c3ccc(OC(F)(F)F)cc3)C2=O)CC1` [Example 289, 1-Oxo-2-(4-trifluoromethoxy-phenyl)-2,8-diaza-spiro[4.5]decane-8-sulfonic acid (2-methoxy-ethyl)-amide], with 6.64; and `CCNS(=O)(=O)N1CCC2(CCN(c3ccc(OC(F)(F)F)cc3)C2=O)CC1` [Example 290, 1-Oxo-2-(4-trifluoromethoxy-phenyl)-2,8-diaza-spiro[4.5]decane-8-sulfonic acid ethylamide], with 6.80.
Then `CCN(CC)S(=O)(=O)N1CCC2(CCN(c3ccc(OC(F)(F)F)cc3)C2=O)CC1` [Example 291, 1-Oxo-2-(4-trifluoromethoxy-phenyl)-2,8-diaza-spiro[4.5]decane-8-sulfonic acid diethylamide], with 7.05.
In the case of `CN(CCO)S(=O)(=O)N1CCC2(CCN(c3ccc(OC(F)(F)F)cc3)C2=O)CC1` [Example 292, 1-Oxo-2-(4-trifluoromethoxy-phenyl)-2,8-diaza-spiro[4.5]decane-8-sulfonic acid (2-hydroxy-ethyl)-methyl-amide], the pIC50 was 6.70.
Then `CC(C)CN(C)S(=O)(=O)N1CCC2(CCN(c3ccc(OC(F)(F)F)cc3)C2=O)CC1` [Example 293, 1-Oxo-2-(4-trifluoromethoxy-phenyl)-2,8-diaza-spiro[4.5]decane-8-sulfonic acid isobutyl-methyl-amide], with 7.10; and `CCN(CCOC)S(=O)(=O)N1CCC2(CCN(c3ccc(OC(F)(F)F)cc3)C2=O)CC1` [Example 294, 1-Oxo-2-(4-trifluoromethoxy-phenyl)-2,8-diaza-spiro[4.5]decane-8-sulfonic acid ethyl-(2-methoxy-ethyl)-amide], with 7.05.
Then `CN(c1ccccc1)S(=O)(=O)N1CCC2(CCN(c3ccc(OC(F)(F)F)cc3)C2=O)CC1` [Example 295, 1-Oxo-2-(4-trifluoromethoxy-phenyl)-2,8-diaza-spiro[4.5]decane-8-sulfonic acid methyl-phenyl-amide], with 7.15; and `CN(Cc1ccccc1)S(=O)(=O)N1CCC2(CCN(c3ccc(OC(F)(F)F)cc3)C2=O)CC1` [Example 296, 1-Oxo-2-(4-trifluoromethoxy-phenyl)-2,8-diaza-spiro[4.5]decane-8-sulfonic acid benzyl-methyl-amide], with 7.15; and `CN(CCc1ccccc1)S(=O)(=O)N1CCC2(CCN(c3ccc(OC(F)(F)F)cc3)C2=O)CC1` [Example 297, 1-Oxo-2-(4-trifluoromethoxy-phenyl)-2,8-diaza-spiro[4.5]decane-8-sulfonic acid methyl-phenethyl-amide], with 6.96.
The figure for `CN(CCc1ccccn1)S(=O)(=O)N1CCC2(CCN(c3ccc(OC(F)(F)F)cc3)C2=O)CC1` [Example 298, 1-Oxo-2-(4-trifluoromethoxy-phenyl)-2,8-diaza-spiro[4.5]decane-8-sulfonic acid methyl-(2-pyridin-2-yl-ethyl)-amide] is 6.80.
With `CN(C(=O)N1CCC2(CC1)CCN(c1ccc(OC(F)(F)F)cc1)C2=O)c1ccc(C(F)(F)F)cc1` [Example 299, 1-Oxo-2-(4-trifluoromethoxy-phenyl)-2,8-diaza-spiro[4.5]decane-8-carboxylic acid methyl-(4-trifluoromethyl-phenyl)-amide], the pIC50 was 6.77.
Regarding `CN(C(=O)N1CCC2(CC1)CCN(c1ccc(OC(F)(F)F)cc1)C2=O)c1ccc(Cl)cc1` [Example 300, 1-Oxo-2-(4-trifluoromethoxy-phenyl)-2,8-diaza-spiro[4.5]decane-8-carboxylic acid (4-chloro-phenyl)-methyl-amide], the pIC50 is 7.22.
As for `CN(C(=O)N1CCC2(CC1)CCN(c1ccc(OC(F)(F)F)cc1)C2=O)c1ccc(Cl)c(Cl)c1` [Example 301, 1-Oxo-2-(4-trifluoromethoxy-phenyl)-2,8-diaza-spiro[4.5]decane-8-carboxylic acid (3,4-dichloro-phenyl)-methyl-amide], the negative logarithm of the IC50 (pIC50) is 6.96.
Regarding `CN(C(=O)N1CCC2(CC1)CCN(c1ccc(OC(F)(F)F)cc1)C2=O)c1cccc(Cl)c1` [Example 302, 1-Oxo-2-(4-trifluoromethoxy-phenyl)-2,8-diaza-spiro[4.5]decane-8-carboxylic acid (3-chloro-phenyl)-methyl-amide], the pIC50 is 7.40.
As to `CCCCN(CC)C(=O)N1CCC2(CC1)CCN(c1ccc(OC(F)(F)F)cc1)C2=O` [Example 303, 1-Oxo-2-(4-trifluoromethoxy-phenyl)-2,8-diaza-spiro[4.5]decane-8-carboxylic acid butyl-ethyl-amide], the pIC50 is 6.85.
As to `CCN(C(=O)N1CCC2(CC1)CCN(c1ccc(OC(F)(F)F)cc1)C2=O)C(C)C` [Example 304, 1-Oxo-2-(4-trifluoromethoxy-phenyl)-2,8-diaza-spiro[4.5]decane-8-carboxylic acid ethyl-isopropyl-amide], the pIC50 was 7.10.
Then `CCN(C(=O)N1CCC2(CC1)CCN(c1ccc(OC(F)(F)F)cc1)C2=O)C1CCCCC1` [Example 305, 1-Oxo-2-(4-trifluoromethoxy-phenyl)-2,8-diaza-spiro[4.5]decane-8-carboxylic acid cyclohexyl-ethyl-amide], with 6.85; and `CCN(Cc1ccccc1F)C(=O)N1CCC2(CC1)CCN(c1ccc(OC(F)(F)F)cc1)C2=O` [Example 306, 1-Oxo-2-(4-trifluoromethoxy-phenyl)-2,8-diaza-spiro[4.5]decane-8-carboxylic acid ethyl-(2-fluoro-benzyl)-amide], with 6.80.
Then `CCN(Cc1ccncc1)C(=O)N1CCC2(CC1)CCN(c1ccc(OC(F)(F)F)cc1)C2=O` [Example 307, 1-Oxo-2-(4-trifluoromethoxy-phenyl)-2,8-diaza-spiro[4.5]decane-8-carboxylic acid ethyl-pyridin-4-ylmethyl-amide], with 6.46; and `CCN(C(=O)N1CCC2(CC1)CCN(c1ccc(OC(F)(F)F)cc1)C2=O)c1cccc(C)c1` [Example 308, 1-Oxo-2-(4-trifluoromethoxy-phenyl)-2,8-diaza-spiro[4.5]decane-8-carboxylic acid ethyl-m-tolyl-amide], with 7.30.
Take `CCN(C(=O)N1CCC2(CC1)CCN(c1ccc(OC(F)(F)F)cc1)C2=O)c1ccc(Cl)cc1` [Example 309, 1-Oxo-2-(4-trifluoromethoxy-phenyl)-2,8-diaza-spiro[4.5]decane-8-carboxylic acid (4-chloro-phenyl)-ethyl-amide]: the pIC50 was 6.92.
